Measurements: patent publication US20250295799A1, “ANTIBODY-DRUG CONJUGATES TARGETING GLYPICAN-3 AND METHODS OF USE” (Zymeworks BC Inc., priority 2022, published 2025)

What was measured:
[1] = system: cynomolgus monkey GPC3 on transfected CHO-S cells; assay: Binding to transfected CHO-S cells by flow cytometry; details: 24 h at 4 °C
Method: Briefly, CHO—S cells were transiently transfected for −24 hours with a pTT5-based expression plasmid encoding human GPC3 or cynomolgus monkey GPC3, 0.5 μg DNA per 1 million cells, using the Neon™ Transfection System (Thermo Fisher Scientific Corp., Waltham, MA), to transiently express human or cynomolgus monkey GPC3. Following transfection, cells were seeded at 50,000 cells/well in V-bottom 96-well plates and treated with antibody for 24 hours at 4° C. to prevent internalization. […] Following incubation and washing, fluorescence was detected by flow cytometry on a BD LSRFortessa™ Cell Analyzer (BD Biosciences, Franklin Lake, NJ) with 1,000 minimum events collected per well. AF647/APC-A GeoMean (fluorescence signal geometric mean, proportional to anti-Human AF647 binding) in live cell population was plotted against antibody concentration using GraphPad Prism Version 9 (GraphPad Software, San Diego, CA). The Bmax and Kd values were derived from the “Specific binding with Hill slope” nonlinear regression curve fit in GraphPad Prism Version 9.
Briefly, CHO—S cells were transiently transfected for −24 hours with a pTT5-based expression plasmid encoding human GPC3 or cynomolgus monkey GPC3, 0.5 μg DNA per 1 million cells, using the Neon™ Transfection System (Thermo Fisher Scientific Corp., Waltham, MA), to transiently express human or cynomolgus monkey GPC3. […]

[2] = system: JHH-7 cells (high GPC3-expressing); assay: Internalization by flow cytometry (quenched AF488); assay type: cell-based; details: JHH-7; 5 nM; 24 h
Method: (§1) Cells were seeded at 50,000 cells/well in 48-well plates and incubated overnight under standard culturing conditions (37° C./5% CO2) in Gibco™ Dulbecco's Modified Eagle Media (DMEM) (Thermo Fisher Scientific, Waltham, MA; Cat. No. 11995040) with 10% Fetal Bovine Serum (FBS) (Thermo Fisher Scientific, Waltham, MA; Cat. No. 12483020) for Hep G2 cells, and Gibco™ William's E Medium, GlutaMAX™ Supplement (Thermo Fisher Scientific, Waltham, MA; Cat. No. 32551020) with 10% FBS (Thermo Fisher Scientific, Waltham, MA; Cat. No. 12483020) for JHH-7 cells. Coupled antibodies were added to cells the following day at 10 nM or at 100 nM and incubated under standard culturing conditions for 5-24 hours to allow for internalization. Following incubation, cells were dissociated, washed, and surface AF488 fluorescence was quenched using an anti-AF488 antibody (Life Technologies, Carlsbad, CA; Cat. No. A-11094) at 100 nM for 30 minutes at 4° C. Quenched AF488 fluorescence (internalized fluorescence) was detected by flow cytometry on a BD LSRFortessa™ Cell Analyzer (BD Biosciences, Franklin Lake, NJ) with 1,000 minimum events collected per well.
as §1, with “CO2)” for “CO2) in Gibco™ Dulbecco's Modified Eagle Media (DMEM) (Thermo Fisher Scientific, Waltham, MA; Cat. No. 11995040) with 10% Fetal Bovine Serum (FBS) (Thermo Fisher Scientific, Waltham, MA; Cat. No. 12483020) for Hep G2 cells, and”, “12483020).” for “12483020) for JHH-7 cells.”, “5” for “10 nM or at 100”, “24” for “5-24”, “well. […]” for “well.”

Sequence of cynomolgus monkey GPC3 on transfected CHO-S cells (as listed by the source): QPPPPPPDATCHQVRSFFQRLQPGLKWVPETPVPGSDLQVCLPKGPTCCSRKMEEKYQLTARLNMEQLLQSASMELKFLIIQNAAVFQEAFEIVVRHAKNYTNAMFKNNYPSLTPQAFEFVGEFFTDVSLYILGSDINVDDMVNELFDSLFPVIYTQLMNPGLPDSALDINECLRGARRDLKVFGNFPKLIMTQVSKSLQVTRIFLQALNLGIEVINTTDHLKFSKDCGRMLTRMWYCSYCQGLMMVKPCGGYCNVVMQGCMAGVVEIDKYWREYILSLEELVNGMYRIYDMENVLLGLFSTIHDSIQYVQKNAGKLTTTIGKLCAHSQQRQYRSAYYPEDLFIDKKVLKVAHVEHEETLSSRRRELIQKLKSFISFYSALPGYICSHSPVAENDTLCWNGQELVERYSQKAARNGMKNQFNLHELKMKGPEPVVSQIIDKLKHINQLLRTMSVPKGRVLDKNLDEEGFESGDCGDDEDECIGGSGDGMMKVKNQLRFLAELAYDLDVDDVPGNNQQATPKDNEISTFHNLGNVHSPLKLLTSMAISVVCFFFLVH

For palivizumab, the “binding to CHO-S cells expressing cynomolgus monkey GPC3, in words” value [1] was “did not exhibit any binding” and the “internalization, in words” value [2] was “minimal internalization”.
